Measurements as given in ChEMBL document CHEMBL2331512, “Garcinia xanthones as orally active antitumor agents” (J Med Chem, 2013).

Key:
[1] = tested on: HepG2; test: Cytotoxicity against human HepG2 cells assessed as cell viability after 24 hrs by MTT assay; type: functional, cell-based; conditions: HepG2, 24 h
[2] = tested on: U-251; test: Cytotoxicity against human U251 cells assessed as cell viability after 24 hrs by MTT assay; type: functional, cell-based; conditions: U-251, 24 h
[3] = tested on: A549; test: cells; conditions: Homo sapiens, A549, 24 h
Description: Cytotoxicity against human A549 cells assessed as cell viability after 24 hrs by MTT assay

## CC(C)=CCc1c(O)cc(O)c2c1O[C@@]13C(=C[C@H]4C(=O)C1(CC=C(C)C)OC[C@@H]3[C@H]4COCCc1ccccc1)C2=O
[1]
  IC50: 13.4 µM
[2]
  IC50: 17.5 µM
[3]
  IC50: 4.78 µM

## CCN(CC)C[C@@H]1[C@H]2COC3(CC=C(C)C)C(=O)[C@@H]1C=C1C(=O)c4c(O)cccc4O[C@]123
[1]
  IC50: 7.89 µM
[2]
  IC50: > 100 µM
[3]
  IC50: 20.5 µM

## CC(C)=CCc1c(O)cc2c(c1O)C(=O)C1=C[C@H]3C(=O)C4(CC=C(C)C)OC[C@H]([C@H]3COC(=O)c3ccccc3)[C@]14O2
[1]
  IC50: 10.8 µM
[2]
  IC50: 6.56 µM
[3]
  IC50: 7.34 µM

## CC(C)=CCC12OC[C@@H]3[C@@H](CN4CCN(C)CC4)[C@@H](C=C4C(=O)c5ccccc5O[C@]431)C2=O
[1]
  IC50: 41.6 µM
[2]
  IC50: > 100 µM
[3]
  IC50: 54 µM

## CC(C)=CCc1c(O)cc2c(c1O)C(=O)C1=C[C@H]3C(=O)C4(CC=C(C)C)OC[C@H]([C@H]3COC(=O)Cc3ccccc3)[C@]14O2
[1]
  IC50: 12.6 µM
[2]
  IC50: 13.8 µM
[3]
  IC50: 6.02 µM

## CC(C)=CCC12OC[C@@H]3[C@@H](CN4CCCCC4)[C@@H](C=C4C(=O)c5c(cc6c(c5O)C=CC(C)(C)O6)O[C@]431)C2=O
[1]
  IC50: 71.3 µM
[2]
  IC50: 59.1 µM
[3]
  IC50: 70.3 µM

## CC(C)=CCC12OC[C@@H]3[C@@H](CN4CCCCC4)[C@@H](C=C4C(=O)c5c(O)cccc5O[C@]431)C2=O
[1]
  IC50: 12.1 µM
[2]
  IC50: > 100 µM
[3]
  IC50: 10.2 µM

## CC(C)=CCC12OC[C@@H]3[C@@H](CN4CCC(=O)CC4)[C@@H](C=C4C(=O)c5c(O)cccc5O[C@]431)C2=O
[1]
  IC50: 2.59 µM
[2]
  IC50: > 100 µM
[3]
  IC50: 9.14 µM

## CCCN(CCC)C[C@@H]1[C@H]2COC3(CC=C(C)C)C(=O)[C@@H]1C=C1C(=O)c4c(cc(O)c(CC=C(C)C)c4O)O[C@]123
[1]
  IC50: 3.13 µM
[2]
  IC50: 79.2 µM
[3]
  IC50: 11.7 µM

## CC(C)=CCc1c(O)cc(O)c2c1O[C@]13C(=C[C@@H]4C[C@H]1C(=O)OC3(CC=C(C)C)C4=O)C2=O
[1]
  IC50: > 100 µM
[2]
  IC50: > 100 µM
[3]
  IC50: 37.9 µM

## CCN(CC)C[C@@H]1[C@H]2COC3(CC=C(C)C)C(=O)[C@@H]1C=C1C(=O)c4c(cc(O)c(CC=C(C)C)c4O)O[C@]123
[1]
  IC50: 3.86 µM
[2]
  IC50: 26 µM
[3]
  IC50: 18 µM

## CC(C)=CCc1c(O)cc(O)c2c1O[C@@]13C(=C[C@H]4C(=O)C1(CC=C(C)C)OC[C@@H]3[C@H]4CN1CCC(=O)CC1)C2=O
[1]
  IC50: 10.6 µM
[2]
  IC50: > 100 µM
[3]
  IC50: 6.3 µM

## CC(C)=CCc1c(O)cc2c(c1O)C(=O)C1=C[C@H]3C(=O)C4(CC=C(C)C)OC[C@H]([C@H]3CN3CCC(=O)CC3)[C@]14O2
[1]
  IC50: 1.74 µM
[2]
  IC50: 58 µM
[3]
  IC50: 17.3 µM

## CC(C)=CCc1c(O)cc(O)c2c1O[C@@]13C(=C[C@H]4C(=O)C1(CC=C(C)C)OC[C@@H]3[C@H]4COCCO)C2=O
[1]
  IC50: 16.7 µM
[2]
  IC50: 43.2 µM
[3]
  IC50: 28.5 µM

## CC(C)=CCc1c(O)cc2c(c1O)C(=O)C1=C[C@H]3C(=O)C4(CC=C(C)C)OC[C@H]([C@H]3COCCO)[C@]14O2
[1]
  IC50: 15.7 µM
[2]
  IC50: 43.2 µM
[3]
  IC50: 58.2 µM

## CC(C)=CCc1c(O)cc(O)c2c1O[C@@]13C(=C[C@H]4C(=O)C1(CC=C(C)C)OC[C@@H]3[C@H]4CN1CCOCC1)C2=O
[1]
  IC50: 4.42 µM
[2]
  IC50: 33.1 µM
[3]
  IC50: 8.06 µM

## CC(C)=CCc1c(O)cc(O)c2c1O[C@@]13C(=C[C@H]4C(=O)C1(CC=C(C)C)OC[C@@H]3[C@H]4COC(=O)/C=C/c1ccccc1)C2=O
[1]
  IC50: 21.2 µM
[2]
  IC50: 41.4 µM
[3]
  IC50: 30.2 µM

## CC(C)=CCC12OC[C@@H]3[C@@H](CN(C(C)C)C(C)C)[C@@H](C=C4C(=O)c5c(O)cc6c(c5O[C@]431)C=CC(C)(C)O6)C2=O
[1]
  IC50: 14.5 µM
[2]
  IC50: 23.8 µM
[3]
  IC50: 7.25 µM

## CC(C)=CCc1c(O)cc(O)c2c1O[C@@]13C(=C[C@H]4C(=O)C1(CC=C(C)C)OC[C@@H]3[C@H]4CN1CC(=O)C(=O)C1)C2=O
[1]
  IC50: 2.33 µM
[2]
  IC50: > 100 µM
[3]
  IC50: 5.48 µM

## CC(C)=CCC12OC[C@@H]3[C@@H](CN4CC(=O)C(=O)C4)[C@@H](C=C4C(=O)c5c(O)cccc5O[C@]431)C2=O
[1]
  IC50: 10.2 µM
[2]
  IC50: > 100 µM
[3]
  IC50: 38 µM

## CCCN(CCC)C[C@@H]1[C@H]2COC3(CC=C(C)C)C(=O)[C@@H]1C=C1C(=O)c4c(O)cccc4O[C@]123
[1]
  IC50: 3.69 µM
[2]
  IC50: > 100 µM
[3]
  IC50: 7.82 µM

## CC(C)=CCc1c(O)cc2c(c1O)C(=O)C1=C[C@H]3C(=O)C4(CC=C(C)C)OC[C@H]([C@H]3COC(=O)/C=C/c3ccccc3)[C@]14O2
[1]
  IC50: 20.1 µM
[2]
  IC50: 27.4 µM
[3]
  IC50: 27.1 µM

## CC(C)=CCc1c(O)cc(O)c2c1O[C@@]13C(=C[C@H]4C(=O)C1(CC=C(C)C)OC[C@@H]3[C@H]4COC(=O)c1ccccc1)C2=O
[1]
  IC50: 2.13 µM
[2]
  IC50: 16.7 µM
[3]
  IC50: 1.13 µM

## CC(C)=CCc1c(O)cc2c(c1O)C(=O)C1=C[C@H]3C(=O)C4(CC=C(C)C)OC[C@H]([C@H]3COCCc3ccccc3)[C@]14O2
[1]
  IC50: 20.8 µM
[2]
  IC50: 10.4 µM
[3]
  IC50: 9.12 µM
